Measurements published in US7439035B1, “Method of identifying or characterizing a compound that modulates ribonuclease H activity” (McGill University, priority 2001, dated 2008).

Key:
[1] = target: T1, HIV-1 RT associated RNase H (Human immunodeficiency virus type 1 group M subtype B, UniProt P04585); assay: FRET RNase H assay, inhibition of HIV-1 RT associated RNase H; assay type: biochemical; settings: 1.5 nM p51/p66 RT, 100 nM 3'-fluorescein-RNA/5'-DABCYL-DNA substrate, 37° C., 15 min preincubation; read-out: IC50 for BBNH obtained with the FRET assay
T1 construct: final concentration of 2.5 nM of the p51/p66 RT heterodimer in the assay; made in house
Description: Microplate assay protocol for the measurement of RNase H activity using the RNA/DNA hybrid duplex substrate. Reaction assay mixtures contained 5 μl of a stock solution of 2.5 μM RNA/DNA hybrid duplex substrate added to 85 μl of assay buffer (50 mM Tris, pH 8.0, 37° C., containing 60 mM KCl and 2.5 mM MgCl2), prepared in the wells of a 96-well fluorescence microtiter plate, and warmed to 37° C. using the temperature control of the SpectraMax Gemini XS microplate spectrofluorometer (Molecular Devices). Reactions were started by the addition of 5 μl of a solution of recombinant HIV-1 reverse transcriptase (usually providing a final concentration of 2.5 nM of the p51/p66 RT heterodimer in the assay, and mixing using the automatic mixing function of the microplate spectrofluorometer. The reverse transcriptase for use in this assay was prepared as described by Fletcher R S et al, Single step purification of HIV-1 recombinant wild type and mutant reverse transcriptase, Protein Expression and Purification 7:27-32, 1996. The increase in fluorescence signal resulting from the loss of FRET due to the enzymatic hydrolysis of the RNA strand was measured over suitable time intervals (ranging from 3 minutes to 60 minutes), at an excitation wavelength of 490 nm and an emission wavelength of 528 nm, using a cut-off filter of 515 nm. […]

[2] = target: T1, HIV-1 RT associated RNase H; assay: Gel electrophoretic RNase H assay, inhibition of HIV-1 RT associated RNase H; assay type: biochemical; settings: 1.5 nM p51/p66 RT, 100 nM [32P]-RNA/DNA substrate, 37° C., densitometry of undegraded RNA; read-out: IC50 for BBNH obtained with the gel assay
Description: The gel electrophoretic assay used 5′-[^32P]-RNA of the sequence 5′-GAU CUG AGC CUG GGA GCU-3′ (SEQ ID NO: 7; identical to that of the FRET RNA, but lacking the 3′-fluorescein), prepared by the transfer of ^32P from [γ-^32P]-ATP in a reaction catalyzed by bacteriophage T4 polynucleotide kinase. This 5′[^32P]-RNA oligonucleotide was annealed to complementary unlabeled DNA of the sequence 5′-AGC TCC CAG GCT CAG ATC-3′ (SEQ ID NO: 8) to form the [^32P]-RNA/DNA hybrid duplex substrate. Aliquots of 100 μl of 50 mM Tris/HCl (pH 8.0, 37° C.), containing 60 mM KCl and 2.5 mM MgCl2, 1.5 nM p51/p66 RT and variable amounts of BBNH inhibitor were added to individual microtubes and incubated at 37° C. for 15 minutes. […] The extent of RNase H activity can be determined quantitatively by densitometric analysis of the time-dependent disappearance of the full-length RNA substrate and/or the appearance of the smaller degradation products. In this experiment, the bands corresponding to the undegraded 18 nucleotide 5′-[^32P]-RNA were quantified by densitometry, using the software UN-SCAN-IT (Silk Scientific, Orem, Utah). The IC50 values for BBNH inhibition of HIV-1 RT associated RNase H activity were calculated from plots of the residual undegraded 5′[^32P]-RNA vs. drug concentration.

With `CC(C)(C)c1ccc(C(=O)NN=Cc2c(O)ccc3ccccc23)cc1` [BBNH, N-(4-tert-butylbenzoyl)-2-hydroxy-1-naphthaldehyde hydrazone] the IC50 [1] was 2600 ± 500 nM and the IC50 [2] was 3000 ± 1200 nM.
